# Assay results as given in ChEMBL document CHEMBL4219273, “Discovery of a novel olefin derivative as a highly potent and selective acetyl-CoA carboxylase 2 inhibitor with in vivo efficacy” (Bioorg Med Chem Lett, 2018).
# Target: Acetyl-CoA carboxylase 1 (Homo sapiens, UniProt Q13085)
# Experiment: Inhibition of recombinant human ACC1 assessed as reduction in conversion of acetyl-CoA to malonyl-CoA incubated for 1 to 3 hrs with substrate by MALDI-TOF-MS analysis
# Conditions: not given
row,IC50 [µM],SMILES
1,0.035,CC(=O)N[C@@H](C)/C=C/c1ccc(Oc2ccc3nc(C(C)C)sc3c2F)nc1
2,> 100,CC(=O)N[C@@H](C)/C=C/c1nnc(Oc2ccc(OCC3CC3)cc2Cl)s1
3,> 100,CC(=O)N[C@@H](C)/C=C/c1ccc(Oc2ccc(OCC3CC3)cc2Cl)nn1
4,0.303,CC(=O)N[C@@H](C)/C=C/c1ccc(Oc2ccc3nc(C(C)C)sc3c2Cl)nc1
5,3.15,CC(=O)N[C@@H](C)/C=C/c1ccc(Oc2ccc3nc(C(C)(C)O)sc3c2Cl)nc1

# Species: Homo sapiens
# Experiment: Selectivity ratio of IC50 for recombinant human ACC1 to IC50 for recombinant human ACC2
# Conditions: not given
row,Ratio IC50,SMILES
1,17,CC(=O)N[C@@H](C)/C=C/c1ccc(Oc2ccc3nc(C(C)C)sc3c2F)nc1
2,> 395,CC(=O)N[C@@H](C)/C=C/c1nnc(Oc2ccc(OCC3CC3)cc2Cl)s1
3,> 327,CC(=O)N[C@@H](C)/C=C/c1ccc(Oc2ccc(OCC3CC3)cc2Cl)nn1
4,70,CC(=O)N[C@@H](C)/C=C/c1ccc(Oc2ccc3nc(C(C)C)sc3c2Cl)nc1
5,315,CC(=O)N[C@@H](C)/C=C/c1ccc(Oc2ccc3nc(C(C)(C)O)sc3c2Cl)nc1

# Test system: not listed separately
# Experiment: Metabolic stability in human liver microsomes assessed as parent compound remaining after 30 mins
# Type: ADME, microsome
# Conditions: read-out: Stability
row,remaining at 0.5 h [%],SMILES
1,84,CC(=O)N[C@@H](C)/C=C/c1ccc(Oc2ccc3nc(C(C)C)sc3c2F)nc1
2,83,CC(=O)N[C@@H](C)/C=C/c1ccc(Oc2ccc3nc(C(C)C)sc3c2Cl)nc1
3,92,CC(=O)N[C@@H](C)/C=C/c1ccc(Oc2ccc3nc(C(C)(C)O)sc3c2Cl)nc1

# Target: Cytochrome P450 3A4 (Homo sapiens, UniProt P08684)
# Experiment: Inhibition of CYP3A4 (unknown origin)
# Type: ADME
# Conditions: not given
# Sequence of Cytochrome P450 3A4 (P08684 whole entry): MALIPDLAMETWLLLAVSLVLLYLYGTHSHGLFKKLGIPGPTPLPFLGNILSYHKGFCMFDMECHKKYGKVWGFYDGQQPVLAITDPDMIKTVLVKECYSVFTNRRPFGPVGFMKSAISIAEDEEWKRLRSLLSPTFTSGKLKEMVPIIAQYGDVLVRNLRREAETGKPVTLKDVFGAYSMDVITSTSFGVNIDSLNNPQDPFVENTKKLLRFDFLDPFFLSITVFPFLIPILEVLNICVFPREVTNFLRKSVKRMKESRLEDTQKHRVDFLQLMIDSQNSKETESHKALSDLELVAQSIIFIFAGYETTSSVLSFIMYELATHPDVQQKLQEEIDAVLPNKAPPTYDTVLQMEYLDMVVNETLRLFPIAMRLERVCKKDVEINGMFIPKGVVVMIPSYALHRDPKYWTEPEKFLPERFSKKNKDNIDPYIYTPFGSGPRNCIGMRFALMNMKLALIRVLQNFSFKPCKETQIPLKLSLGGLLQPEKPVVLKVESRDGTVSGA
row,IC50 [µM],SMILES
1,> 20,CC(=O)N[C@@H](C)/C=C/c1ccc(Oc2ccc3nc(C(C)C)sc3c2F)nc1
2,> 20,CC(=O)N[C@@H](C)/C=C/c1nnc(Oc2ccc(OCC3CC3)cc2Cl)s1
3,18,CC(=O)N[C@@H](C)/C=C/c1ccc(Oc2ccc(OCC3CC3)cc2Cl)nn1
4,19,CC(=O)N[C@@H](C)/C=C/c1ccc(Oc2ccc3nc(C(C)C)sc3c2Cl)nc1
5,> 20,CC(=O)N[C@@H](C)/C=C/c1ccc(Oc2ccc3nc(C(C)(C)O)sc3c2Cl)nc1

# Target: Acetyl-CoA carboxylase 2 (Homo sapiens, UniProt O00763)
# Experiment: Inhibition of recombinant human ACC2 assessed as reduction in conversion of acetyl-CoA to malonyl-CoA incubated for 1 to 3 hrs with substrate by MALDI-TOF-MS analysis
# Conditions: not given
# Sequence of Acetyl-CoA carboxylase 2 (O00763 whole entry): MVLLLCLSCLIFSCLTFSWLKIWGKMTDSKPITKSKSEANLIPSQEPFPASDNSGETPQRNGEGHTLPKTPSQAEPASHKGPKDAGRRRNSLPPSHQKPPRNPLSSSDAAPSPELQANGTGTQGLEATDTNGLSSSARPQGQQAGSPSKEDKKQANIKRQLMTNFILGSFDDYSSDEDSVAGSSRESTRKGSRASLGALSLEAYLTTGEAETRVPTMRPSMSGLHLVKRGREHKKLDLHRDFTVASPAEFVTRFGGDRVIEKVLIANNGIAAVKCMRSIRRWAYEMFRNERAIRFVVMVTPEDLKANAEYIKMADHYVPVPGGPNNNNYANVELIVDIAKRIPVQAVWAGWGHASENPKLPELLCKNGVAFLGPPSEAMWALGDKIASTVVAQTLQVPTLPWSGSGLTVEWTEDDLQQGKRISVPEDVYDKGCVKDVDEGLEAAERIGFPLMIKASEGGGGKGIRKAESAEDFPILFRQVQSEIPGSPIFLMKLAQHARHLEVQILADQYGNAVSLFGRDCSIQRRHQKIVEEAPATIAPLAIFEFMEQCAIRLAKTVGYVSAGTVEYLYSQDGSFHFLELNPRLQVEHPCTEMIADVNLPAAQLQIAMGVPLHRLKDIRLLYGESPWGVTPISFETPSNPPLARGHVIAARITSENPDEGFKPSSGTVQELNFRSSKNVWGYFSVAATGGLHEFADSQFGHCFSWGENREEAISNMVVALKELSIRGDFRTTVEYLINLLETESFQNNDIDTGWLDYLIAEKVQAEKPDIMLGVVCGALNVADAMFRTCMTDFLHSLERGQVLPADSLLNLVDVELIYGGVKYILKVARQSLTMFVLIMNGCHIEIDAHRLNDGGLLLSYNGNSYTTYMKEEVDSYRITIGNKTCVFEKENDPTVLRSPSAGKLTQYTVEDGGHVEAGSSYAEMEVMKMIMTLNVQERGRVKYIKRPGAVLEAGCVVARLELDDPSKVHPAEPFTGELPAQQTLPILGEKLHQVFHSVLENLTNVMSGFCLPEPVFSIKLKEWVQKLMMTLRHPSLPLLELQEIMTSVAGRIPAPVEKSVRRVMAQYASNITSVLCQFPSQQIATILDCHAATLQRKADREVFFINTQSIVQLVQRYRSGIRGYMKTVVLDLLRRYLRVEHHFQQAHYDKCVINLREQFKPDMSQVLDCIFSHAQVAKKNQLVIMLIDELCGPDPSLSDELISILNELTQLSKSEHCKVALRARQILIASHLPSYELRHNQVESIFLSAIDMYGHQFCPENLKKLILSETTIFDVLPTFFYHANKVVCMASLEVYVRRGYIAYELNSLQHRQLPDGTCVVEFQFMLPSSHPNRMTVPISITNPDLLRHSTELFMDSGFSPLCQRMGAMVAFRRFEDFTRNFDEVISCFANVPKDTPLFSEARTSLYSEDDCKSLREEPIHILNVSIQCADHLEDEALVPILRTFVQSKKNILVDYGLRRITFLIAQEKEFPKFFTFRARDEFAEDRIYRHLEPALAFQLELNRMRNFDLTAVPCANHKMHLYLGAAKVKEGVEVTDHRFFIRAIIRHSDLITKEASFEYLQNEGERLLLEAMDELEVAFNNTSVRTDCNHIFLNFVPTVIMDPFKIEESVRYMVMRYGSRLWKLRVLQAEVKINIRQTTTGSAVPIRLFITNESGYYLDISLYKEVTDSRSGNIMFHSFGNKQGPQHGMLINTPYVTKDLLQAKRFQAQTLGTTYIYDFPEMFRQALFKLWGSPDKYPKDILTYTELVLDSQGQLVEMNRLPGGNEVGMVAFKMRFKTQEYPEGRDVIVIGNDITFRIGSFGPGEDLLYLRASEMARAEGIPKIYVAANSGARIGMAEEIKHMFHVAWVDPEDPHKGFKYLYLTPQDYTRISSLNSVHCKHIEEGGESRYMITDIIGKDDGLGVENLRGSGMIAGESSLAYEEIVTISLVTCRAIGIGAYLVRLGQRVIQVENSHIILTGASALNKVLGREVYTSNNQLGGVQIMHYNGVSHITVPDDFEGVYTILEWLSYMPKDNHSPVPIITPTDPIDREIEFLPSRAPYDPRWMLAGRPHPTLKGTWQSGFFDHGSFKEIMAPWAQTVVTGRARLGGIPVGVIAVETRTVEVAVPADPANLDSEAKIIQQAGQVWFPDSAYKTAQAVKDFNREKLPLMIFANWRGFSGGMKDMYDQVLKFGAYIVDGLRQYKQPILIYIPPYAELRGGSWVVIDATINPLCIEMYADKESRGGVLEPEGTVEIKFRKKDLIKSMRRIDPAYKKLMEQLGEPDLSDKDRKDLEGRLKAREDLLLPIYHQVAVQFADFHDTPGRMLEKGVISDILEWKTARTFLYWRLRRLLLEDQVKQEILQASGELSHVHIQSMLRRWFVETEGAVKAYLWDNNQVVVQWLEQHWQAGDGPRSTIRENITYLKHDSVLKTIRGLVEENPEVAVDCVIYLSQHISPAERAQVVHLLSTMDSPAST
row,IC50 [µM],SMILES
1,0.0021,CC(=O)N[C@@H](C)/C=C/c1ccc(Oc2ccc3nc(C(C)C)sc3c2F)nc1
2,0.253,CC(=O)N[C@@H](C)/C=C/c1nnc(Oc2ccc(OCC3CC3)cc2Cl)s1
3,0.306,CC(=O)N[C@@H](C)/C=C/c1ccc(Oc2ccc(OCC3CC3)cc2Cl)nn1
4,0.0043,CC(=O)N[C@@H](C)/C=C/c1ccc(Oc2ccc3nc(C(C)C)sc3c2Cl)nc1
5,0.01,CC(=O)N[C@@H](C)/C=C/c1ccc(Oc2ccc3nc(C(C)(C)O)sc3c2Cl)nc1

# Test system: not listed separately
# Experiment: Metabolic stability in rat liver microsomes assessed as parent compound remaining after 30 mins
# Type: ADME, microsome
# Conditions: read-out: Stability
row,remaining at 0.5 h [%],SMILES
1,51,CC(=O)N[C@@H](C)/C=C/c1ccc(Oc2ccc3nc(C(C)C)sc3c2F)nc1
2,52,CC(=O)N[C@@H](C)/C=C/c1ccc(Oc2ccc3nc(C(C)C)sc3c2Cl)nc1
3,96,CC(=O)N[C@@H](C)/C=C/c1ccc(Oc2ccc3nc(C(C)(C)O)sc3c2Cl)nc1

# Target: Cytochrome P450 2D6 (Homo sapiens, UniProt P10635)
# Experiment: Inhibition of CYP2D6 (unknown origin)
# Type: ADME
# Conditions: not given
# Sequence of Cytochrome P450 2D6 (P10635 whole entry): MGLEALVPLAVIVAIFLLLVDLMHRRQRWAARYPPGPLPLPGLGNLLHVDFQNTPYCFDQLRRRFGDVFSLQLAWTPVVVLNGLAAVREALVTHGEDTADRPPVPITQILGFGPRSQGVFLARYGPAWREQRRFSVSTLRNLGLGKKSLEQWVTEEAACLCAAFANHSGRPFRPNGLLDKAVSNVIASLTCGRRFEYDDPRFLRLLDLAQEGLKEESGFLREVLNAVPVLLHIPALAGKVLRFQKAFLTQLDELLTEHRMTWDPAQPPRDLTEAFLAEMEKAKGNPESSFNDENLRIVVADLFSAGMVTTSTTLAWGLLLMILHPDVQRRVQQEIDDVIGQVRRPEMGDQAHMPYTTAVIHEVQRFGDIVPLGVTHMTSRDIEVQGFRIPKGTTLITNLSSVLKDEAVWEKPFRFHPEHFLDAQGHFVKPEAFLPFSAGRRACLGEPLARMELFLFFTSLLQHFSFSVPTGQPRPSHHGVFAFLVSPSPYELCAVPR
row,IC50 [µM],SMILES
1,> 20,CC(=O)N[C@@H](C)/C=C/c1ccc(Oc2ccc3nc(C(C)C)sc3c2F)nc1
2,> 20,CC(=O)N[C@@H](C)/C=C/c1nnc(Oc2ccc(OCC3CC3)cc2Cl)s1
3,> 20,CC(=O)N[C@@H](C)/C=C/c1ccc(Oc2ccc(OCC3CC3)cc2Cl)nn1
4,> 20,CC(=O)N[C@@H](C)/C=C/c1ccc(Oc2ccc3nc(C(C)C)sc3c2Cl)nc1
5,> 20,CC(=O)N[C@@H](C)/C=C/c1ccc(Oc2ccc3nc(C(C)(C)O)sc3c2Cl)nc1

# Target: T1, Cytochrome P450 1A2 (Homo sapiens, UniProt P05177)
# T1 sequence (P05177 whole entry): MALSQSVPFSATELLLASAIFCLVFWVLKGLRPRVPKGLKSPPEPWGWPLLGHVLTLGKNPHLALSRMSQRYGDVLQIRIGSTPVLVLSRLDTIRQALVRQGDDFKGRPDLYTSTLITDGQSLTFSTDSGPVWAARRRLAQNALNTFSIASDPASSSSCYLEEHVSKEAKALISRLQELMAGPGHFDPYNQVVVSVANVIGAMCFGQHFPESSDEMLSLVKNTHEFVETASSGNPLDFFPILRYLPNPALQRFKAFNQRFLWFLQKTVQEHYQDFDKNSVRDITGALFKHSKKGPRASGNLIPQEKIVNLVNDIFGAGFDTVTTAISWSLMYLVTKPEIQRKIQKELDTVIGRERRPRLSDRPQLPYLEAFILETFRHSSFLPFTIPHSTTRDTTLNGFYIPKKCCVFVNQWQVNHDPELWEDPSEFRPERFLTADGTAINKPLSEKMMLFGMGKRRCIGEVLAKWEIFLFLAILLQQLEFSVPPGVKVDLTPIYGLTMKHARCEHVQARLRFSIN
# Experiment: Inhibition of CYP1A2 (unknown origin)
# Type: ADME
# Conditions: not given
row,IC50 [µM],SMILES
1,> 20,CC(=O)N[C@@H](C)/C=C/c1ccc(Oc2ccc3nc(C(C)C)sc3c2F)nc1
2,> 20,CC(=O)N[C@@H](C)/C=C/c1nnc(Oc2ccc(OCC3CC3)cc2Cl)s1
3,> 20,CC(=O)N[C@@H](C)/C=C/c1ccc(Oc2ccc(OCC3CC3)cc2Cl)nn1
4,> 20,CC(=O)N[C@@H](C)/C=C/c1ccc(Oc2ccc3nc(C(C)C)sc3c2Cl)nc1
5,> 20,CC(=O)N[C@@H](C)/C=C/c1ccc(Oc2ccc3nc(C(C)(C)O)sc3c2Cl)nc1

# Target: Cytochrome P450 2C19 (Homo sapiens, UniProt P33261)
# Experiment: Inhibition of CYP2C19 (unknown origin)
# Type: ADME
# Conditions: not given
# Sequence of Cytochrome P450 2C19 (P33261 whole entry): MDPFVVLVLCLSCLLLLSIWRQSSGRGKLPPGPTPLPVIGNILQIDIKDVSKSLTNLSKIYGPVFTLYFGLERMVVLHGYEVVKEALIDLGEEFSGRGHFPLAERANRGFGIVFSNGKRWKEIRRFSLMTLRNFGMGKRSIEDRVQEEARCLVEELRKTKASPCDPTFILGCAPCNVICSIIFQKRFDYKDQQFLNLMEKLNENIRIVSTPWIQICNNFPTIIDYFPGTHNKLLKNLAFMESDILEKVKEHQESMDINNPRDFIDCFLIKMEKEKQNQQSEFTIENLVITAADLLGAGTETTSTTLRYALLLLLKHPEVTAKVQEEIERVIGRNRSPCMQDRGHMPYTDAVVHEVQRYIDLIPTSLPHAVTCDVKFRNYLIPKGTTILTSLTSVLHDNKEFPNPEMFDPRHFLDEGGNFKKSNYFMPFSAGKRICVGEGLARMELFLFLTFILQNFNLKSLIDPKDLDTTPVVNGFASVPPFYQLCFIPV
row,IC50 [µM],SMILES
1,> 20,CC(=O)N[C@@H](C)/C=C/c1ccc(Oc2ccc3nc(C(C)C)sc3c2F)nc1
2,> 20,CC(=O)N[C@@H](C)/C=C/c1nnc(Oc2ccc(OCC3CC3)cc2Cl)s1
3,> 20,CC(=O)N[C@@H](C)/C=C/c1ccc(Oc2ccc(OCC3CC3)cc2Cl)nn1
4,18,CC(=O)N[C@@H](C)/C=C/c1ccc(Oc2ccc3nc(C(C)C)sc3c2Cl)nc1
5,> 20,CC(=O)N[C@@H](C)/C=C/c1ccc(Oc2ccc3nc(C(C)(C)O)sc3c2Cl)nc1

# Target: Cytochrome P450 2C9 (Homo sapiens, UniProt P11712)
# Experiment: Inhibition of CYP2C9 (unknown origin)
# Type: ADME
# Conditions: not given
# Sequence of Cytochrome P450 2C9 (P11712 whole entry): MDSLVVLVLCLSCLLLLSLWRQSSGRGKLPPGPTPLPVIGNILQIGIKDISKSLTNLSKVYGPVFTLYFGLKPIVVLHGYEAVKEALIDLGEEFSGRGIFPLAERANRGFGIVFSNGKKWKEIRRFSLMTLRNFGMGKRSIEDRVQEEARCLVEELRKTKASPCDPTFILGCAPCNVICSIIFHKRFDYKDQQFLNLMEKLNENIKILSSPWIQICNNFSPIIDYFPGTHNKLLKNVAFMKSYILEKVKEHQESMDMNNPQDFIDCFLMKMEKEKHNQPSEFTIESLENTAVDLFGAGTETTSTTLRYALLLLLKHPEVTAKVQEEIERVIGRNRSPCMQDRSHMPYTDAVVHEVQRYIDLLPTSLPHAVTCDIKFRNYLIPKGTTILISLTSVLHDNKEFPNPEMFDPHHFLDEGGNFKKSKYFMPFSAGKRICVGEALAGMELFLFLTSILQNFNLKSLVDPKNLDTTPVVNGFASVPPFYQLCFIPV
row,IC50 [µM],SMILES
1,> 20,CC(=O)N[C@@H](C)/C=C/c1ccc(Oc2ccc3nc(C(C)C)sc3c2F)nc1
2,15,CC(=O)N[C@@H](C)/C=C/c1nnc(Oc2ccc(OCC3CC3)cc2Cl)s1
3,> 20,CC(=O)N[C@@H](C)/C=C/c1ccc(Oc2ccc(OCC3CC3)cc2Cl)nn1
4,13,CC(=O)N[C@@H](C)/C=C/c1ccc(Oc2ccc3nc(C(C)C)sc3c2Cl)nc1
5,17,CC(=O)N[C@@H](C)/C=C/c1ccc(Oc2ccc3nc(C(C)(C)O)sc3c2Cl)nc1
